Test results as given in patent US8940943B2, “Cosmetic preparations” (Cognis IP Management GmbH, priority 2010, dated 2015).

Assays:
human skin [1] = assay: occlusive epicutaneous 24 h patch test (skin compatibility)
Description: The di(2-propylheptyl)ether obtained according to production example 2 was compared in an occlusive epicutaneous 24 h patch test against the commercially available di-n-octyl ether. […] 24 after application the patch was removed, after a further 6 hours the first visual assessment was carried out, further assessments were carried out 24, 48 and 72 hours after the patch was removed.
The assessment was based on a scale from 0 (no reaction) to 4 (strong reaction) in the categories: erythema formation, edema formation, formation of scales (=squamation) and formation of cracks (=fissuration). A so-called total irritation score RSS value was found from the values obtained.

human skin [2] = assay: in-vivo patch test, 24 hours on human skin, skin reddening or irritation; settings: compared to diethylhexyl ether, water and surfactant solution as negative and positive standards
Description: In an in-vivo patch test, the test substances are applied on human skin and left there for 24 hours. Then an assessment is made with respect to possible occurrence of skin reddening or irritation. As comparison, in each case water and a surfactant solution are tested as negative and positive standards.

Row | SMILES | total irritation score RSS (human skin [1]; 22 test subjects, applied on back, occlusive 24 h patch (Finn Chambers), assessed 6, 24, 48 and 72 h after patch removal, scale 0-4 for erythema, edema, squamation, fissuration) | total irritation score RSS (human skin [1]; human, in vivo, 24 h) | skin compatibility (human skin [2])
1 | CCCCCCCCCCCCOS(=O)(=O)[O-].[Na+] [Positive control, sodium dodecyl sulfate] | 7.95 | – | –
2 | CCCCCC(CCC)COCC(CCC)CCCCC (stereo not shown) [Di(2-propylheptyl)ether] | – | 3.62 | improved skin compatibility
3 | CCCCCCCCOCCCCCCCC [Di-n-alkyl ether (Cetiol ® OE), di-n-octyl ether] | – | 7.1 | –
